In PubChem BioAssay (NCI):
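Tested at 5 concentrations; 48 h exposure; 96-well plates; endpoints linearly interpolated, else capped at highest concentration. GI50 marks 50% less growth. TGI denotes the concentration required for complete inhibition of growth.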

Columns and labels:
Assay in all cases: growth of human tumour cells (NCI), 48 h
[1] = test system: 786-0 renal
[2] = test system: A498 renal
[3] = test system: A549 NSCLC
[4] = test system: ACHN renal
[5] = test system: BT-549 breast
[6] = test system: CAKI-1 renal
[7] = test system: CCRF-CEM leukemia
[8] = test system: COLO 205 colon
[9] = test system: DU-145 prostate
[10] = test system: EKVX NSCLC
[11] = test system: HCC-2998 colon
[12] = test system: HCT-116 colon
[13] = test system: HCT-15 colon
[14] = test system: HL-60(TB) leukemia
[15] = test system: HOP-62 NSCLC
[16] = test system: HOP-92 NSCLC
[17] = test system: HS 578T breast
[18] = test system: HT29 colon
[19] = test system: IGROV1 ovarian
[20] = test system: K-562 leukemia
[21] = test system: KM12 colon
[22] = test system: LOX IMVI melanoma
[23] = test system: M14 melanoma
[24] = test system: MALME-3M melanoma
[25] = test system: MCF7 breast
[26] = test system: MDA-MB-435
[27] = test system: MOLT-4 leukemia
[28] = test system: NCI-H226 lung

With COc1ccccc1N1CCN(C2=NN=C(c3cccc(Cl)c3)c3ccccc3C2)CC1 the GI50 [1] was 0.542 µM, the TGI [1] was 13.2 µM and the GI50 [2] was 0.35 µM. The TGI [2] was 2.78 µM, the GI50 [3] was 0.425 µM and the TGI [3] was greater than 100 µM. The GI50 [4] was 0.554 µM, the TGI [4] was greater than 100 µM and the GI50 [5] was 0.373 µM. It also gave a TGI [5] greater than 30.5 µM, a GI50 [6] of 0.41 µM and a TGI [6] of 13.5 µM. The GI50 [7] was 0.333 µM, the TGI [7] was greater than 100 µM and the GI50 [8] was 0.337 µM. For the same compound, the TGI [8] was 1.65 µM, the GI50 [9] was 0.367 µM and the TGI [9] was 2.37 µM. It also gave a GI50 [10] of 0.556 µM, a TGI [10] greater than 100 µM and a GI50 [11] of 0.324 µM. The TGI [11] was 2.27 µM, the GI50 [12] was 0.337 µM and the TGI [12] was greater than 36.6 µM. The GI50 [13] was 0.343 µM, the TGI [13] was greater than 34.2 µM and the GI50 [14] was 0.285 µM. The TGI [14] was 0.92 µM, the GI50 [15] was 0.508 µM and the TGI [15] was greater than 65.8 µM. The GI50 [16] was 1 µM, the TGI [16] was greater than 22.2 µM and the GI50 [17] was 0.332 µM. It also gave a GI50 [18] of 0.337 µM, a GI50 [19] of 0.474 µM and a TGI [19] greater than 100 µM. The GI50 [20] was 0.336 µM, the TGI [20] was greater than 100 µM and the GI50 [21] was 0.38 µM. It also gave a TGI [21] greater than 100 µM, a GI50 [22] of 0.418 µM and a TGI [22] greater than 100 µM. It also gave a GI50 [23] of 0.316 µM, a GI50 [24] of 0.63 µM and a TGI [24] greater than 100 µM. The GI50 [25] was 0.351 µM, the TGI [25] was greater than 38 µM and the GI50 [26] was 0.206 µM. For the same compound, the TGI [26] was 0.497 µM, the GI50 [27] was 0.356 µM and the TGI [27] was greater than 100 µM. It also gave a GI50 [28] of 1.16 µM.
